Where a SMILES comes first, the peptide text is derived from it.
What was measured:
Format in all cases: functional
[1] = system: Schistocerca gregaria; test: Tested for dose dependent release of inositol phosphate (InsP3) at 10 nM
[2] = system: Schistocerca gregaria; test: Tested for dose dependent release of inositol phosphate (InsP4) at 1 uM
[3] = system: Schistocerca gregaria; test: Tested for dose dependent release of inositol phosphate (InsP4) at 10 nM
[4] = system: Schistocerca gregaria; test: Tested for dose dependent release of inositol phosphate (InsP3) at 1 uM
[5] = system: Schistocerca gregaria; test: Tested for dose dependent release of inositol phosphate (InsP4) at 1 uM in the presence of compound 1 (0.5 uM)
[6] = system: Schistocerca gregaria; test: Tested for dose dependent release of inositol phosphate (InsP3) at 1 uM in the presence of compound 1 (0.5 uM)
[7] = system: Schistocerca gregaria; test: Tested for dose dependent release of inositol phosphate (InsP4) at 0.5 uM
[8] = system: Schistocerca gregaria; test: Tested for dose dependent release of inositol phosphate (InsP3) at 0.5 uM

Compound | Increase in DPM [1] | Increase in DPM [2] | Increase in DPM [3] | Increase in DPM [4] | Increase in DPM [5] | Increase in DPM [6] | Increase in DPM [7] | Increase in DPM [8]
CC(C)C[C@@H]1NC(=O)[C@H](Cc2ccc(O)cc2)NC(=O)[C@H](CCCN=C(N)N)NC(=O)[C@H]([C@@H](C)O)NC(=O)[C@@H]2CCCN2C1=O (HELM PEPTIDE1{L.P.T.R.Y}$PEPTIDE1,PEPTIDE1,1:R1-5:R2$$$V2.0) | 1200 (mg of protein)-1 | 300 (mg of protein)-1 | 750 (mg of protein)-1 | 500 (mg of protein)-1 |  |  |  | 
CC(C)C[C@H](NC(=O)[C@H](Cc1ccc(O)cc1)N(C)C(=O)[C@@H](N)CCCN=C(N)N)C(=O)N1CCC[C@H]1C(=O)N[C@H](C(=O)O)[C@@H](C)O (HELM PEPTIDE1{R.[meY].L.P.T}$$$$V2.0) |  |  |  |  | 1500 (mg of protein)-1 | 3600 (mg of protein)-1 |  | 
H-RYLPT-OH | 1250 (mg of protein)-1 |  | 1100 (mg of protein)-1 |  |  |  | 1600 (mg of protein)-1 | 3400 (mg of protein)-1
CC(C)C[C@@H](NC(=O)[C@@](C)(Cc1ccc(O)cc1)NC(=O)[C@@H](N)CCCN=C(N)N)C(=O)N1CCC[C@@H]1C(=O)N[C@H](C(=O)O)[C@H](C)O | 500 (mg of protein)-1 | 250 (mg of protein)-1 | 250 (mg of protein)-1 | 400 (mg of protein)-1 |  |  |  | 

Source: ChEMBL document CHEMBL1128101, “Cycloproctolin and [-Methyl-l-Tyr]-proctolin are potent antagonists of proctolin-induced inositol phosphate production in locust foregut homogenates” (1995)
